How the values were obtained:
[1] = molecular target: T1, human sphingosine-1-phosphate receptor 1 (S1P1) (Homo sapiens (Human), UniProt P21453); test: Inhibition of cAMP production (HTRF cAMP HiRange), S1P1 CHO-K1 cells; assay type: cell-based; conditions: for Emax: CHO-K1, efficacy (SPAN) normalized to fingolimod, read-out: hS1P1 cAMP SPAN
Summary of the method: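 CHO-K1 cells stably co-expressing human S1P1 (C-terminal Prolink tag) and EA-β-arrestin2 were grown in AssayComplete Media 6 at 37° C. and 5% CO2, plated, and incubated overnight. Agonist-driven inhibition of intracellular cAMP was read by TR-FRET with the HTRF cAMP HiRange kit on a PheraStar reader. Potency is pEC50, and efficacy (SPAN) is normalized to fingolimod.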
Target sequence in this assay (P21453 whole entry, looked up): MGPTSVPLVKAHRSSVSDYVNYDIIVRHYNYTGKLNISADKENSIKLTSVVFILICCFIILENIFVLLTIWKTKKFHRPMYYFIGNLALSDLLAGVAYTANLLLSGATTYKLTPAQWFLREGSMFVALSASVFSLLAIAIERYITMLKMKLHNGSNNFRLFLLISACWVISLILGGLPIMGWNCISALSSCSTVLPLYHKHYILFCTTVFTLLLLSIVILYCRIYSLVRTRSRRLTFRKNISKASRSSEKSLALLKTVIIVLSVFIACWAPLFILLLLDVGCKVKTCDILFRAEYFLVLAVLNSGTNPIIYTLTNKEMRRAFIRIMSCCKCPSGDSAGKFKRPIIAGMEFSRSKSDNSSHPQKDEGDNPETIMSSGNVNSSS

[2] = molecular target: T1, human sphingosine-1-phosphate receptor 1 (S1P1); test: β-Arrestin2 recruitment assay (PathHunter), S1P1 CHO-K1 cells; assay type: cell-based; conditions: for Emax: CHO-K1, efficacy (SPAN) normalized to fingolimod, read-out: hS1P1 B-arrestin2 SPAN
Summary of the method: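 Enzyme-fragment complementation read-out: agonist-driven β-arrestin2 binding to ProLink-tagged human S1P1 in stable CHO-K1 cells restores β-galactosidase, measured 1 h at room temperature after a 60 min 37° C. compound incubation. Potency as pEC50, efficacy relative to fingolimod (SPAN).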
Target sequence in this assay (P21453 whole entry, looked up): as above
Target sequence in this assay (P32121 whole entry partner, looked up): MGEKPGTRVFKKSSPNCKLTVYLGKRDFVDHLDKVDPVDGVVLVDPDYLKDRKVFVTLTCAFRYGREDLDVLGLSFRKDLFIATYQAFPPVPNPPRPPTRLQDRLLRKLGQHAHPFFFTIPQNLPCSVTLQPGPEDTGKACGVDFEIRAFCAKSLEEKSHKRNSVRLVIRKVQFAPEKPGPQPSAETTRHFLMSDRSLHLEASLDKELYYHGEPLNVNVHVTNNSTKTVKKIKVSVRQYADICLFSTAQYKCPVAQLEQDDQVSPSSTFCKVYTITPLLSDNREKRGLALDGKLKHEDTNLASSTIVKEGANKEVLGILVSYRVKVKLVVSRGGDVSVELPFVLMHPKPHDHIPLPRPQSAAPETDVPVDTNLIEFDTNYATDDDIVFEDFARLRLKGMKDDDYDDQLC

[3] = system: paclitaxel induced peripheral neuropathy; test: Reversal of allodynia induced by paclitaxel in mice (s.c. or p.o., von Frey frequency method); assay type: in vivo, c57bl/6 mice; conditions: Mus musculus; for inhibition in vivo at 1 mg/kg: sc, 0.5 h, 1 mg/kg s.c., tested 30 min after dosing, read-out: Screen @ 1 mg/kg sc (% MPE); for inhibition in vivo at 3 mg/kg: po, 1 h, 3 mg/kg p.o., tested 60 min after dosing, read-out: Screen @ 3 mg/kg po (% MPE)
Summary of the method: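 Neuropathy was induced in mice by paclitaxel (6 mg/kg i.p., days 1, 3, 5, 7) or oxaliplatin (4 mg/kg i.p., days 1-5), with re-testing about 14 days later. Compounds were given s.c. (tested at 30 min) or p.o. (tested at 60 min; paclitaxel only). A 0.4 g von Frey filament was applied ten times per paw, and % non-response was converted to % MPE.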

[4] = molecular target: human sphingosine-1-phosphate receptor 2 (S1P2) (Homo sapiens (Human), UniProt O95136); test: Inositol monophosphate production (IP-one TB kit), S1P2 CHO-K1 cells; assay type: cell-based; conditions: for Emax: CHO-K1, efficacy normalized to CYM5520, read-out: hS1P2 IP-one SPAN; for hS1P2 IP-one pEC50: inositol monophosphate accumulation
Experimental: (§1) Stable clonal Chinese hamster ovary K1 (CHO-K1) cells co-expressing EA-β-arrestin2 and the human sphingosine-1-phosphate receptor 2 (NM_004230.3, S1P2), human sphingosine-1-phosphate receptor 3 (NM_005226, S1P3) and sphingosine-1-phosphate receptor 5 (NM_001166215.1, S1P5) with a C-terminal Prolink™ tag were purchased from DiscoverX corporation (S1P2: Cat #93-0256C2, S1P3: Cat #93-0217C2, S1P5: Cat #93-0583C2).
(§2) Cell lines were cultured in AssayComplete™ Media 6 (DiscoverX Corporation, Cat #: 920018GF2) at 37° C. and 5% CO2 in a humidified CO2 and temperature-controlled incubator. To begin assay plating, cells were washed with dulbecco's phosphate buffered saline (CellGro, Cat #: 21-031-CV) and lifted from the culturing flask by incubation (37° C., 5 min) with CellStripper (Cellgro, Cat #: 25-056-CI). […] Plated cells were incubated overnight at 37° C. and 5% CO2 in a humidified CO2 and temperature-controlled incubator.
S1P2 Agonist-promoted G-protein responses were determined by measuring changes in intracellular inositol monophosphate using the IP-one TB kit (CisBio, Cat #: 62IPAPEJ) based on time-resolved fluorescence resonance energy transfer (TR-FRET) technology. AssayComplete™ Cell Plating 2 Reagent was removed and replaced with 1× IP-one stimulation buffer (as per manufacturer's instructions) along with test or control compounds at the desired concentrations. Following a 60-minute incubation at 37° C. and 5% CO2 in a humidified CO2 and temperature-controlled incubator, the components of the IP-one TB kit were added as per the manufacturer's instructions. After an hour incubation at room temperature, plates were analyzed by a BMG PheraStar microplate reader.
(§3) The tables below include the efficacy of the compound as compared to a positive control, referred to as “SPAN”. These values are normalized to fingolimod, a known agonist of the sphingosine-1-phosphate 3 and 5 receptor or CYM5520, a known agonist of the sphingosine-1-phosphate 2 receptor. The tables also include potency values (pEC50) for modulating discrete receptor-mediated activities (inhibition of cAMP production or inositol monophosphate accumulation).

[5] = molecular target: human sphingosine-1-phosphate receptor 3 (S1P3) (Homo sapiens (Human), UniProt Q99500); test: Inhibition of cAMP production (HTRF), S1P3 CHO-K1 cells; assay type: cell-based; conditions: for Emax: CHO-K1, efficacy normalized to fingolimod, read-out: hS1P3 cAMP SPAN; for hS1P3 cAMP pEC50: inhibition of cAMP production
Experimental: as §1, §2
(§4) S1P3 and S1P5 Agonist-promoted G-protein responses were determined by measuring changes in intracellular cAMP using the HTRF® cAMP HiRange kit (CisBio, Cat #: 62AM6PEJ) based on time-resolved fluorescence resonance energy transfer (TR-FRET) technology. […] Following a 30-minute room temperature incubation the components of the cAMP HiRange kit were added as per the manufacturer's instructions. After an hour incubation at room temperature, plates were analyzed by a BMG PheraStar microplate reader.
as §3

[6] = molecular target: sphingosine-1-phosphate receptor 5 (S1P5) (Homo sapiens (Human), UniProt Q9H228); test: Inhibition of cAMP production (HTRF), S1P5 CHO-K1 cells; assay type: cell-based; conditions: for Emax: CHO-K1, efficacy normalized to fingolimod, read-out: hS1P5 cAMP SPAN; for hS1P5 cAMP pEC50: inhibition of cAMP production
Experimental: as §1, §2, §4, §3

[7] = inhibition of cAMP production, S1P1 CHO-K1 cells
[8] = β-arrestin2 recruitment, S1P1 CHO-K1 cells

sphingosine-1-phosphate receptor 5 (S1P5), sequence (Q9H228 whole entry): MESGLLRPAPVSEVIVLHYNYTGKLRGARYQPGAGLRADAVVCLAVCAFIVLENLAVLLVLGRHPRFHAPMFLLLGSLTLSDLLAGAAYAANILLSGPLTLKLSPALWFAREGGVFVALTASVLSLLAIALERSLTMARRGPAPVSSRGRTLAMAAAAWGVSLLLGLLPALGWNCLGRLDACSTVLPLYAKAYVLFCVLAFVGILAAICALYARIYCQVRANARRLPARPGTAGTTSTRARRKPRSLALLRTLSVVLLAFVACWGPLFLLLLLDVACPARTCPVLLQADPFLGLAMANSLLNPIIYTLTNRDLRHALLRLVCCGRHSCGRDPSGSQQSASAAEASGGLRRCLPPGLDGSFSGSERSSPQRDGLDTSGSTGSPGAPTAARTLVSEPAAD
human sphingosine-1-phosphate receptor 3 (S1P3), sequence (Q99500 whole entry): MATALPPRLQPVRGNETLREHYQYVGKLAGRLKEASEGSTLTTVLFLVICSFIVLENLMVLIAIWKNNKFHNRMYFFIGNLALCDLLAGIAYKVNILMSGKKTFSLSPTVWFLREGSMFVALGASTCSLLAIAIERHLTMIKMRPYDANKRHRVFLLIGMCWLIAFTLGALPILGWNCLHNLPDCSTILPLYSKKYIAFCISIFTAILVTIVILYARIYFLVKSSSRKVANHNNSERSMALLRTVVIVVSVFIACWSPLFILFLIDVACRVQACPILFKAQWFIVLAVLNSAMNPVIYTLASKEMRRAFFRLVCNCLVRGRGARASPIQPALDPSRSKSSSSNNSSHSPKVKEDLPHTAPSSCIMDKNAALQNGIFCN
human sphingosine-1-phosphate receptor 2 (S1P2), sequence (O95136 whole entry): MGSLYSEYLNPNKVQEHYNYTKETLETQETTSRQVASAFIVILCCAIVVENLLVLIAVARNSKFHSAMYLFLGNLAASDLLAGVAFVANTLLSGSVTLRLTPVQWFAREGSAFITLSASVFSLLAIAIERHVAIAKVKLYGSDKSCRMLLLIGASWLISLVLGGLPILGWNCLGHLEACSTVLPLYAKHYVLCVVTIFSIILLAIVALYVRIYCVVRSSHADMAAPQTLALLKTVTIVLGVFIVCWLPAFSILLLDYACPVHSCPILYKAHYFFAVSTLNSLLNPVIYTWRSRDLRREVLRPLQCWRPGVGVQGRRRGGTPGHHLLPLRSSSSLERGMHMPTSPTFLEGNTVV

Row | SMILES | Emax [1] | hS1P1 cAMP pEC50 [1, 7] | Emax [2] | hS1P1 B-arrestin2 pEC50 [2, 8] | inhibition in vivo at 1 mg/kg [3] | Emax [4] | hS1P2 IP-one pEC50 [4] | Emax [5] | hS1P3 cAMP pEC50 [5] | Emax [6] | hS1P5 cAMP pEC50 [6] | EC50 ([1]; inhibition of cAMP production, S1P1 CHO-K1 cells, read-out: hS1P1 cAMP pEC50 (converted)) | EC50 ([2]; β-arrestin2 recruitment, S1P1 CHO-K1 cells, read-out: hS1P1 B-arrestin2 pEC50 (converted)) | inhibition in vivo at 3 mg/kg [3]
1 | C=CCNc1ccc(-c2nc(-c3ccc(NS(C)(=O)=O)cc3)no2)cc1C#N [Compound 149, N-(4-(5-(4-(allylamino)-3-cyanophenyl)-1,2,4-oxadiazol-3-yl)phenyl)methanesulfonamide] | > 75% | >6.5 | > 75% | >5 | < 50% | < 50% | <5.0 | > 50% | >5.0 | > 50% | >5.0 | – | – | –
2 | C=CCNc1ccc(-c2nc(-c3ccc4[nH]cnc4c3)no2)cc1C#N [Compound 177, 5-(3-(1H-benzo[d]imidazol-5-yl)-1,2,4-oxadiazol-5-yl)-2-(allylamino)benzonitrile] | > 75% | >6.5 | > 75% | >5 | > 50% | < 50% | <5.0 | > 50% | >5.0 | > 50% | >5.0 | – | – | –
3 | CCC1(CC)CC(=O)c2cc(-c3nc(-c4ccc(C(=O)NC)cc4)no3)ccc2O1 [Compound 185, 4-(5-(2,2-diethyl-4-oxochroman-6-yl)-1,2,4-oxadiazol-3-yl)-N-methylbenzamide] | > 75% | >6.5 | > 75% | >5 | > 50% | < 50% | <5.0 | < 50% | <5.0 | > 50% | <5.0 | – | – | –
4 | CCC1(CC)CC(=O)c2cc(-c3nc(-c4ccccc4Cl)no3)ccc2O1 [Compound 221, 6-(3-(2-chlorophenyl)-1,2,4-oxadiazol-5-yl)-2,2-diethylchroman-4-one] | – | >6.5 | – | >5 | < 50% | – | <5.0 | – | >5.0 | – | >5.0 | – | – | –
5 | C=CCNc1ccc(-c2nc(-c3cn[nH]c3)no2)cc1C#N [Compound 252, 5-(3-(1H-pyrazol-4-yl)-1,2,4-oxadiazol-5-yl)-2-(allylamino)benzonitrile] | – | – | – | – | < 50% | – | >5.0 | – | >5.0 | – | >5.0 | < 0.316 µM | < 10 µM | –
6 | CC(C)Nc1ccc(-c2nc(-c3ccc4c(c3)CCC(=O)N4)no2)cc1C#N [Compound 259, 2-(isopropylamino)-5-(3-(2-oxo-1,2,3,4-tetrahydroquinolin-6-yl)-1,2,4-oxadiazol-5-yl)benzonitrile] | > 75% | >6.5 | < 75% | >5 | < 50% | < 50% | <5.0 | < 50% | <5.0 | < 50% | <5.0 | – | – | –
7 | CCC1(CC)CC(=O)c2cc(-c3nc(-c4ccc(NS(C)(=O)=O)cc4)no3)ccc2O1 [Compound 262, N-(4-(5-(2,2-diethyl-4-oxochroman-6-yl)-1,2,4-oxadiazol-3-yl)phenyl)methanesulfonamide] | > 75% | >6.5 | > 75% | >5 | > 50% | > 50% | <5.0 | < 50% | <5.0 | < 50% | <5.0 | – | – | > 50%
8 | CCC1(CC)CC(=O)c2cc(-c3nc(-c4ccnc(O)c4)no3)ccc2O1 [Compound 263, 2,2-diethyl-6-[3-(2-hydroxy-4-pyridyl)-1,2,4-oxadiazol-5-yl]chroman-4-one] | – | >6.5 | – | >5 | > 50% | – | <5.0 | – | <5.0 | – | <5.0 | – | – | > 50%
9 | C=CCNc1ccc(-c2nc(-c3ccc4sc(N)nc4c3)no2)cc1C#N [Compound 267, 2-(allylamino)-5-(3-(2-aminobenzo[d]thiazol-5-yl)-1,2,4-oxadiazol-5-yl)benzonitrile] | – | >6.5 | – | >5 | > 50% | – | <5.0 | – | <5.0 | – | <5.0 | – | – | –
10 | Cc1ccncc1-c1noc(-c2ccc3c(c2)nnn3C2CCC2)n1 [Compound 417, 1-cyclobutyl-5-[3-(4-methylpyridin-3-yl)-1,2,4-oxadiazol-5-yl]-1H-1,2,3-benzotriazole] | – | >6.5 | – | >5 | – | – | >5.0 | – | <5.0 | – | <5.0 | – | – | –
